Laboratory results: patent EP3685668B1, “COMPOSITION COMPRISING ACIBENZOLAR-S-METHYL AS EFFECTIVE INGREDIENT FOR CONTROLLING BURSAPHELENCHUS XYLOPHILUS DISEASE AND METHOD FOR CONTROLLING BURSAPHELENCHUS XYLOPHILUS USING SAME” (Industry Foundation of Chonnam National University, priority 2017, dated 2019)

Legend:
Cytochrome_P450 = assay: qRT-PCR expression of induced resistance gene in pine tree callus; assay type: cell-based; conditions: for Expression of induced resistance gene, Cytochrome_P450: 24 hours
Experimental: For in vitro analysis of induced resistance, the expression of PR genes and other plant defense-related genes was determined, which are evolved in various defense mechanisms including induced resistance. The primers of sixteen induced resistance-related genes of pine tree used in this invention were listed in the below and elongation factor_1 alpha were used as a reference gene. […] The primer list of defense resistance-related genes
After the treatment with 200 µg / mℓ of candidates of the selected induced resistance material, expression of the induced resistance-related gene in pine callus was determined by qRT-PCR using the primer pairs of defense resistance-related genes in Table 4. As a candidate group of an induced resistance material in pine tree, acibenzolar-S-methyl (ASM), TDL (Tiadinil), ITL (Isotianil), PBZ (Probenzole), AZO (Azoxystrobin), VMA (Validamycin A), MeJA (Methyl jasmonate), BABA (DL-3-aminobutyric acid), 2,3-BDO (2,3-Butanediol), GABA (r-Aminobutyric acid), glucan (Glucan), ER (Ergosterol), and AZA (Azelaic acid) were used. For the in vitro analysis of the expression of induced resistance gene in pine callus, the selected induced resistance materials were applied with 500 µℓ of LM liquid medium on a surface of pine tree callus (100 mg) in 12-well microplate to give final concentration of 200 µg/mℓ. Then, the callus surface was sufficiently reacted for 24 hours with the candidate of pine tree induced resistance material by shaking at 50 rpm in a 25 °C shaking incubator under dark condition. RNAs were extracted from the callus after completion of the reaction with an induced resistance material, followed by synthesis of cDNAs. Then, by carrying out qRT-PCR, the expression of induced resistance genes was determined.
Thus, the following tests were carried out using acibenzolar-S-methyl only. Expression of the induced resistance genes at different culture time after the chemical treatment was examined. For the in vitro assay, LM medium containing pine tree callus was treated with acibenzolar-S-methyl at concentration of 200 µg / mℓ, followed by reaction for 1 day, 7 days, or 14 days in a 25°C shaking incubator under dark condition. RNAs were extracted from the callus after the reaction followed by synthesis of cDNAs. Then, by carrying out qRT-PCR, the expression of the induced resistance genes was determined. Depending on reaction time after the treatment, i.e., after 1 day, 7 days, or 14 days, the expression of the obtained induced resistance genes was examined. […]
For the surface treatment (spraying treatment) of pine tree callus, 100 mg of the pine tree callus were dunked in 500 µℓ LM liquid medium and 500 µℓ of 400 µg/mℓ acibenzolar-S-methyl were sprayed (i.e., sprayed 5 times, 100 µℓ for each spraying, 200 µg/mℓ) on the callus surface. Then, the pine callus sprayed with acibenzolar-S-methyl was reacted for 24 hours by shaking at 50 rpm in a 25°C shaking incubator under dark condition. After the completion of the 24-hour reaction, RNAs were extracted from the callus followed by synthesis of cDNAs. Then, by carrying out qRT-PCR, expression of the induced resistance gene was determined.

[1] = system: Bursaphelenchus xylophilus; assay: Occurrence of pine wilt disease after trunk injection of induced resistance candidate materials, in vivo test in young red pine trees; conditions: red pine tree (Pinus densiflora), 30 days after inoculation; for Occurrence rate of pine wilt disease: Number of pine trees showing wilt symptoms / Number of pine trees used for the test: trunk injection 100 µℓ per tree; for Number of pine trees showing wilt symptoms only at growing points of a stem: trunk injection
Experimental: By using the 15 types of an induced resistance elicitors which have been known to induce the plant resistance against various diseases as candidates, their controlling effect against pine wilt disease was examined. The control efficacy of candidates against pine wilt disease was analyzed according to an in vivo test using red pine tree (Pinus densiflora) which was 2-year old young pine trees (diameter of 5.5 mm or so, and height of about 35 mm).
As a candidate group of an induced resistance material, two kinds of acibenzolar-S-methyl (ASM), TDL (Tiadinil), ITL (Isotianil), PBZ (Probenzole), AZO (Azoxystrobin), VMA (Validamycin A), MeJA (Methyl jasmonate), BABA (DL-3-aminobutyric acid), 2,3-BDO (2,3-Butanediol), SA (salicyclic acid), GABA (r-Aminobutyric acid), glucan (Glucan), ER (Ergosterol), and AZA (Azelaic acid) were used. Only the use of acibenzolar-S-methyl is according to the invention. Injection of the chemicals was carried out by trunk injection method, i.e., at an angle of 45°, a borehole was created by using an electric drill with thickness of 1.5 mm on a pine stem part that is 5 to 10 cm above the soil surface, a tip (200 µℓ) was inserted to the hole, and, after dissolving the candidate material at concentration level of 200, 20, or 2 µg/mℓ in each solvent, the solution was injected in an amount of 100 µℓ per pine tree. After the injection of the chemical agent, the end part of the tip was sealed with parafilm.
The pine tree wilt nematodes (Bursaphelenchus xylophilus, National Institute of Forest Science (NIFoS), South Korea) was incubated at 25°C by feeding them with Botrytis cinerea, which have been cultured on a potato dextrose agar (PDA) medium, and after one week incubation, they were collected by Baermann funnel method and were adjusted to the level of 20,000 worms/mℓ by examining the number of the worms under an optical microscope. One week after the chemical treatment, the inoculation of the pine tree wilt nematodes was carried out by tree barking inoculation of 100 µℓ, i.e., 2,000 worms, per tree, and the result was determined 30 days after the inoculation. […] [Table 1] Occurrence rate of pine wilt disease in candidate group of induced resistance materials

| SMILES | Expression of induced resistance gene, Cytochrome_P450 (Cytochrome_P450; 200 µg/mℓ) | Occurrence rate of pine wilt disease: Number of pine trees showing wilt symptoms / Number of pine trees used for the test ([1]; 2 µg/mℓ) | Occurrence rate of pine wilt disease: Number of pine trees showing wilt symptoms / Number of pine trees used for the test ([1]; 20 µg/mℓ) | Occurrence rate of pine wilt disease: Number of pine trees showing wilt symptoms / Number of pine trees used for the test ([1]; 200 µg/mℓ) | Number of pine trees showing wilt symptoms only at growing points of a stem ([1]; 2 µg/mℓ) | Number of pine trees showing wilt symptoms only at growing points of a stem ([1]; 20 µg/mℓ) | Number of pine trees showing wilt symptoms only at growing points of a stem ([1]; 200 µg/mℓ) | Expression of induced resistance gene, Cytochrome_P450 (Cytochrome_P450; 200 µg/mℓ, Direct supplying as a medium component) | Expression of induced resistance gene, Cytochrome_P450 (Cytochrome_P450; 200 µg/mℓ, Spraying) | Gene expression level, Cytochrome_P450 (Cytochrome_P450; 200 µg/mℓ, After 1 day) | Gene expression level, Cytochrome_P450 (Cytochrome_P450; 200 µg/mℓ, After 7 days) | Gene expression level, Cytochrome_P450 (Cytochrome_P450; 200 µg/mℓ, After 14 days) | Gene expression level, Cytochrome_P450 (Cytochrome_P450; concentration series, 2 µg/mℓ) | Gene expression level, Cytochrome_P450 (Cytochrome_P450; concentration series, 20 µg/mℓ) | Gene expression level, Cytochrome_P450 (Cytochrome_P450; concentration series, 200 µg/mℓ) |
| --- | --- | --- | --- | --- | --- | --- | --- | --- | --- | --- | --- | --- | --- | --- | --- |
| CC(N)CC(=O)O (racemic) [BABA, DL-3-aminobutyric acid] | 0.37 | 2/3 | 3/3 | 2/3 | 2 | 2 | 2 |  |  |  |  |  |  |  |  |
| CC(O)C(C)O (stereo not drawn) [2,3-BDO, 2,3-Butanediol] | 0.88 | 2/3 | 3/3 | 1/3 | 2 | 1 | 1 |  |  |  |  |  |  |  |  |
| CSC(=O)c1cccc2nnsc12 [ASM, acibenzolar-S-methyl] | 1.71 | 1/3 | 1/3 | 0/3 | 1 | 1 |  | 9.99 | 1.71 | 7.21 | 0.85 | 0.04 | 1.231 | 1.173 | 1.231 |
| O=C(O)CCCCCCCC(=O)O [AZA, Azelaic acid] | 1.05 | 2/3 | 2/3 | 2/3 |  | 1 | 2 |  |  |  |  |  |  |  |  |
| CO/C=C(/C(=O)OC)c1ccccc1Oc1cc(Oc2ccccc2C#N)ncn1 [AZO, Azoxystrobin] | 1.17 | 0/3 | 2/2 | 2/3 |  | 1 | 2 |  |  |  |  |  |  |  |  |
| CC(C)[C@@H](C)/C=C/[C@@H](C)[C@H]1CC[C@H]2C3=CC=C4C[C@@H](O)CC[C@]4(C)[C@H]3CC[C@]12C [ER, Ergosterol] | 1.06 | 3/3 | 0/3 | 1/3 | 1 |  |  |  |  |  |  |  |  |  |  |
| NCCCC(=O)O [GABA, r-Aminobutyric acid] | 2.41 | 3/3 | 1/3 | 0/3 | 1 | 1 |  |  |  |  |  |  |  |  |  |
| N#Cc1ccccc1NC(=O)c1snc(Cl)c1Cl [ITL, Isotianil] | 0.98 | 2/3 | 2/3 | 1/3 | 1 | 2 | 1 |  |  |  |  |  |  |  |  |
| CC/C=C\CC1C(=O)CCC1CC(=O)OC (stereo not drawn) [MeJA, Methyl jasmonate] | 0.3 | 3/3 | 2/3 | 2/3 | 1 | 1 | 2 |  |  |  |  |  |  |  |  |
| C=CCOC1=NS(=O)(=O)c2ccccc21 [PBZ, Probenzole] | 1.06 | 2/3 | 0/3 | 1/3 | 1 |  | 1 |  |  |  |  |  |  |  |  |
| Cc1ccc(NC(=O)c2snnc2C)cc1Cl [TDL, Tiadinil] | 0.91 | 3/3 | 2/3 | 1/3 | 3 | 2 | 1 |  |  |  |  |  |  |  |  |
